Measured values: patent publication US4859671A, “2-substituted 1,2-benzisothiazol-3(2H)-one 1,1-dioxide useful as an anxiolytic agent” (American Home Products Corporation, priority 1988, dated 1989)

Columns and labels:
5-HT1A receptor = target: T1, 5-HT1A receptor (Rattus norvegicus, UniProt P19327); details: for inhibition at 1 µM: pH 7.7, read-out: % Inhibition at 1 μM, 5-HT1A Receptor Binding
T1 sequence (P19327 1-422): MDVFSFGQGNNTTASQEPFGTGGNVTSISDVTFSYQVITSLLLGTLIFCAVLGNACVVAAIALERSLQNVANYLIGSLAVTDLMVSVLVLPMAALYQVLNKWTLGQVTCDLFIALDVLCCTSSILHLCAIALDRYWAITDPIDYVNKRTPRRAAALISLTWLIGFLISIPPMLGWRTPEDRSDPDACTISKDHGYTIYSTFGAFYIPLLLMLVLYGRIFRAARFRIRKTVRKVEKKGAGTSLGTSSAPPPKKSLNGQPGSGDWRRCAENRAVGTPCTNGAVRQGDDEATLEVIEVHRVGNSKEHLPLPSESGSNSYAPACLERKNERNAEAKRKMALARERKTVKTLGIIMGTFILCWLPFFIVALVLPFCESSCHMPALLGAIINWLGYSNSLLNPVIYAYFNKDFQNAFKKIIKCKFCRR
Protocol: The assay is carried out as follows:
Hippocampal tissue from male Sprague Dawley rats is dissected and homogenized on ice in 40 volumes of buffer A (50 mM Tris-HCl, pH=7.7) using a Polytron homogenizer at setting 5 for 3×15-second bursts. The homogenate is then centrifuged at 20,000 rpm (RC5-B; 50,000 g), and the supernatant is discarded. The pellet is resuspended in 40 volumes of the same buffer and incubated at 37° C. for 10 minutes to aid in the removal of endogenous serotonin. The homogenate is then centrifuged (as above) and the supernatant discarded. The pellet is then resuspended in 100 volumes of buffer B (50 mM Tris HCl, pH=7.7 containing 0.1% ascorbate, 10 μM pargyline and 4 mM CaCl2) and sonicated. An aliquot is taken for protein determination by the Lowry method and the remainder stored frozen at -70° C. until used.
At the end of the incubation, 3 mL of cold buffer A are added to each tube, and the contents rapidly filtered through Whatman GF/B glass-fiber filters. The filters are then rapidly washed 2 times with 3 mL of the same buffer, placed in scintillation vials, and shaken for 15 minutes with 10 mL of Hydrofluor (National Diagnostics) scintillation cocktail. The vials are then counted in a Packard 460CD scintillation counter.
Specific binding is defined as total binding less binding in the presence of excess unlabeled serotonin (1 μM). Binding in the presence of various concentrations of test drug is expressed as a percent of specific binding when no drug is present. […] Ki (inhibition constant) for the test drug is then calculated by the formula: [formula]

anxiety = details: cited from earlier work; for efficacy in the treatment of anxiety neuroses (in words): clinical, compared with diazepam
5-HT1A receptors = details: compared with buspirone; cited from earlier work

Row | SMILES | inhibition at 1 µM (5-HT1A receptor) [%] | anxiolytic activity in clinical trials (in words) (anxiety) | efficacy in the treatment of anxiety neuroses (in words) (anxiety) | also measured
1 | O=C1CC2(CCCC2)CC(=O)N1CCCCN1CCN(c2ncccn2)CC1 [Buspirone] | 94 |  |  | 
2 | O=C1c2ccccc2S(=O)(=O)N1CCCCN1CCN(c2nccc3ccncc23)CC1 [Example 1, 2-[4-[4-(2,7-Naphthyridin-1-yl)-1-piperazinyl]butyl]-1,2-benzoisothiazol-3(2H)-one 1,1-Dioxide] | 100 |  |  | affinity for the 5-HT1A receptor site (in words) (5-HT1A receptor; conclusion from Table 1): high affinity
3 | CC1(C)CC(=O)N(CCCCN2CCN(c3ncccn3)CC2)C(=O)C1 [Gepirone, 4,4-dimethyl-1-[4-[4-(2-pyrimidinyl)-1-piperazinyl]butyl]-2,6-piperidinedione] |  | potent anxiolytic drugs | comparable to the benzodiazepine diazepam | 
4 | O=C1c2ccccc2S(=O)(=O)N1CCCCN1CCN(c2ncccn2)CC1 [ipsapirone] |  | potent anxiolytic drugs |  | selectivity for 5-HT1A receptors relative to buspirone (in words) (5-HT1A receptors): higher degree of selectivity for 5-HT1A receptors than buspirone
5 | Cc1nc2sccn2c(=O)c1CCN1CCC(=C(c2ccc(F)cc2)c2ccc(F)cc2)CC1 [ritanserin] |  |  | comparable to the benzodiazepine diazepam | 
